From patent publication US12043602B2, “Fendiline derivatives” (The Board of Regents of the University of Texas System, priority 2019, dated 2024)
“Also recorded” adds a separate entry of the source. Like-named read-outs stand apart in the source and are kept apart here.

What was measured:
[1] = tested on: NCI H522 (WT) lung tumor cells; experiment: CyQUANT proliferation assay; assay type: cell-based; settings: Homo sapiens
Experimental: (§1) Madine Darby Canine Kidney epithelial cells (MDCK) stably co-expressing mGFP-tagged full length oncogenic mutant K-Ras (GFP—K-RASG12V) or mGFP-LactC2 (peptide probe for phosphatidylserine) and mCherry-tagged to the amino acids 179-189 of H-RasC181S, C184S (mCherry-CAAX, localizes primarily to endomembranes) were grown in DMEM-high glucose/sodium pyruvate/10% FBS. The medium was supplemented with 1× Penicillin/Streptomycin for fluorescence microscopy assays, to avoid any microbial contamination from the test compounds added. KLE and Hec50 cells were maintained in DMEM-F-12 medium supplemented with 10% FBS. Hec-1A and Hec-1B cells were grown in McCoy's 5a medium supplemented with 10% FBS. ESS-1 cells were grown in RPMI 1640 medium supplemented with 20% FBS. MPanc96 cells were grown in DMEM supplemented with 10% FBS, MiaPaCa-2 cells in DMEM supplemented with 10% FBS and 2.5% horse serum and all other cell lines were grown in RPMI 1640 supplemented with 10% FBS. All cancer cell media were supplemented with ×Penicillin/Streptomycin. All cell lines were grown at 37° C. with 5% CO2.
(§2) Cells were seeded in 96-well plates. After 24 h, fresh growth medium supplemented with 0.1% vehicle (DMSO), or various concentrations of drugs was added and cells were grown for 72 h. Cell numbers were quantified using the CyQUANT® Cell Proliferation Assay Kit (Molecular Probes, Life Technologies), according to the manufacturer's protocol. Fluorescence measurement was used as a measure of live cell number.

[2] = tested on: MiaPaCa-2 (Mut) pancreatic tumor cells; experiment: CyQUANT proliferation assay; assay type: cell-based; settings: Homo sapiens
Experimental: as §1, §2

[3] = tested on: CaCO-2 (WT) colon tumor cells; experiment: CyQUANT proliferation assay; assay type: cell-based; settings: Homo sapiens
Experimental: as §1, §2

[4] = tested on: NCI-H1299 (WT) lung tumor cells; experiment: CyQUANT proliferation assay; assay type: cell-based; settings: Homo sapiens
Experimental: as §1, §2

[5] = tested on: SK-CO-1 (Mut) colon tumor cells; experiment: CyQUANT proliferation assay; assay type: cell-based; settings: Homo sapiens
Experimental: as §1, §2

[6] = tested on: Hec1B (Mut) endometrial tumor cells; experiment: CyQUANT proliferation assay; assay type: cell-based; settings: Homo sapiens, HEC-1B
Experimental: as §1, §2

[7] = tested on: Hec1A (Mut) endometrial tumor cells; experiment: CyQUANT proliferation assay; assay type: cell-based; settings: Homo sapiens, HEC-1-A
Experimental: as §1, §2

blood vessels in tumors = experiment: Blood vessel lumen area in tumor sections; set-up: species or system nu/nu mice; settings: mouse, in vivo
Experimental: FIG. 8A-E. (A) Nu/nu mice implanted with MiaPaCa-2 tumors were treated with vehicle (DMSO) or compounds intraperitoneally and tumor sizes were measured with an external caliper every 3-4 days. (B) Tumor sections were stained with GFP-Lys. (C) Tumor sections were stained with antibodies against pERK. (D) Tumor sections were stained with cleaved caspase 3. (E) Blood vessel lumen area was also measured in tumor sections.
Immunohistochemistry. 4-5 μm sections were deparaffinized, rehydrated, and treated with 10 mM sodium citrate for heat induced antigen retrieval. After quenching endogenous peroxidase, and blocking with 2.5% normal goat serum (Vector Laboratories S-1012), sections were incubated overnight at 4° C. with primary antibody diluted in blocking solution as recommended by manufacturer (Cell Signaling). Controls were incubated with diluted normal rabbit IgG. After incubation with biotinylated secondary antibody diluted 1:250 in blocking serum for 45 min at rt, sections were incubated with VECTASTAIN ABC reagent for 30 min, and for development of the DAB chromogen the Quanto substrate was used. Slides were counter stained with Hematoxylin. Five fields per stained section per xenograft were photographed at 10X. CC3+ and pERK+ area and number of events per field were quantitated via automated image analysis (NIS Elements BR analysis ver. 4.13.04). Vessel number and lumen area per field used the same software with manual settings to trace vessel wall contours. Antibodies used are as follows: CC3: Cell Signaling #9661, use at 1:300. (Cleaved Caspase-3 (Asp175) Antibody. Rabbit polyclonal. pERK: Cell Signaling #4370: Phospho-p44/42 MAPK (Erk1/2) (Thr202/Tyr204) (D13.14.4E) XP Rabbit mAB. CD31 (PECAM-1) (D8V9E) XP Rabbit mAB (Cell signal # (Cell signal #77699). Normal rabbit IgG: Santa Cruz #sc-3888. Concentration is 50 μg/mL or 50 ng/μL. Prepared with 5 μg in 200 μL blocking solution. Goat Anti-Rabbit IgG Biotin Conjugate: Calbiochem #OS03B, Concentration=1.2 mg/mL. Recommended to be used for IHC at 1 μg/mL.

[8] = tested on: ESS-1 (WT) endometrial tumor cells; experiment: CyQUANT proliferation assay; assay type: cell-based; set-up: key: NE—Not efficacious; settings: 72 h
Experimental: as §1, §2

[9] = tested on: KLE (WT) endometrial tumor cells; experiment: CyQUANT proliferation assay; assay type: cell-based; set-up: key: NE—Not efficacious; settings: 72 h
Experimental: as §1, §2

[10] = tested on: MPanc96 (Mut) pancreatic tumor cells; experiment: CyQUANT proliferation assay; assay type: cell-based
Experimental: as §1, §2

[11] = tested on: NCI H1975 (WT) lung tumor cells; experiment: CyQUANT proliferation assay; assay type: cell-based; set-up: key to IC50 proliferation NCI H1975 (WT): NE—Not efficacious; settings: for IC50 proliferation NCI H1975 (WT): 72 h; for IC50: Homo sapiens, NCI-H1975, Table 11, lung
Experimental: as §1, §2

[12] = NCI-H522, 72 h, read-out: IC50 proliferation NCI H522 (WT)
[13] = NCI-H522, Table 11, lung, read-out: IC50 (μM) NCI H522 (WT)
[14] = MIA PaCa-2, 72 h, read-out: IC50 proliferation MiaPaCa-2 (Mut)
[15] = MIA PaCa-2, Table 11, pancreatic, read-out: IC50 (μM) MiaPaCa-2 (Mut)
[16] = Caco-2, 72 h, read-out: IC50 proliferation CaCO-2 (WT)
[17] = Caco-2, Table 11, colon, read-out: IC50 (μM) Caco-2 (WT)
[18] = NCI-H1299, 72 h, read-out: IC50 proliferation NCI-H1299 (WT; N Mut in Table 6)
[19] = NCI-H1299, Table 11, lung, read-out: IC50 (μM) NCI H1299 (WT)
[20] = SK-CO-1, 72 h, read-out: IC50 proliferation SK-CO-1 (Mut)
[21] = SK-CO-1, Table 11, colon, read-out: IC50 (μM) SK-CO-1 (Mut)
[22] = 72 h, read-out: IC50 proliferation Hec1B (Mut)
[23] = Table 11, endometrial, read-out: IC50 (μM) Hec1B (Mut)
[24] = 72 h, read-out: IC50 proliferation Hec1A (Mut)
[25] = Table 11, endometrial, read-out: IC50 (μM) Hec1A (Mut)
[26] = MPANC96, 72 h, read-out: IC50 proliferation MPanc96 (Mut)
[27] = MPANC96, Table 11, pancreatic, read-out: IC50 (μM) MPanc96 (Mut)

Structure (SMILES)	IC50 [1, 12] [µM]	IC50 [1, 13] [µM]	IC50 [2, 14] [µM]	IC50 [2, 15] [µM]	IC50 [3, 16] [µM]	IC50 [3, 17] [µM]	IC50 [4, 18] [µM]	IC50 [4, 19] [µM]	IC50 [5, 20] [µM]	IC50 [5, 21] [µM]	IC50 [6, 22] [µM]	IC50 [6, 23] [µM]	IC50 [7, 24] [µM]	IC50 [7, 25] [µM]	IC50 proliferation ESS-1 (WT) [8]	IC50 proliferation KLE (WT) [9]	IC50 [10, 26] [µM]	IC50 [10, 27] [µM]	IC50 proliferation NCI H1975 (WT) [11]	IC50 [11] [µM]	further results
CC(NCCC(c1ccccc1)c1ccccc1)c1ccccc1 (stereo not shown) [Fendiline]	29.6	29.6 ± 1.2	9.17	9.2 ± 0.6	15.4	14.5	24.2	24.3 ± 2.1	7.77	7.8	9.8	9.8	9.48	9.48	NE	NE	10.8	10.8	NE	> 30	blood vessel dilation / vasodilatory effect in tumors (blood vessels in tumors): dilated
COc1ccc([C@@H](C)N(CC=C(c2ccccc2)c2ccccc2)CCN2CCCC2)cc1 [NY0331, (R)-N-(1-(4-methoxyphenyl)ethyl)-3,3-diphenyl-N-(2-(pyrrolidin-1-yl)ethyl)prop-2-en-1-amine]	–	–	3.36	3.1	–	–	–	–	–	–	–	–	–	–	–	–	3.81	3.8	–	–	blood vessel dilation / vasodilatory effect in tumors (blood vessels in tumors; listed as 12h): no vasodilatory effects; also recorded: not changed
COc1ccc([C@@H](C)N(CC=C(c2ccccc2)c2ccccc2)CCN2CCN(C)CC2)cc1 [NY0244, (R)-N-(1-(4-methoxyphenyl)ethyl)-N-(2-(4-methylpiperazin-1-yl)ethyl)-3,3-diphenylprop-2-en-1-amine]	28.2	28.2	3.03	3	5.1	5.1	8.24	8.2	3.28	3.3	3.28	3.3	2.6	2.6	NE	NE	4.22	4.2	NE	> 30	–
COc1ccc([C@@H](C)N(CC=C(c2ccccc2)c2ccccc2)CCCN2CCN(C)CC2)cc1 [NY0335, (R)-N-(1-(4-methoxyphenyl)ethyl)-N-(3-(4-methylpiperazin-1-yl)propyl)-3,3-diphenylprop-2-en-1-amine]	23.5	23.5 ± 3.2	2.79	2.8	4.43	4.4	8.12	8.2 ± 1	3.52	3.5	3.89	3.9	2.34	2.3	NE	NE	4.18	4.2	NE	> 30	blood vessel dilation / vasodilatory effect in tumors (blood vessels in tumors; listed as 22): no vasodilatory effects; also recorded: not changed
